{
  "source": "patent US6313171A",
  "about": "“Method for preventing or treating elevated blood lipid level-related diseases by administering cinnamic acid derivatives” (Korea Research Institute of Bioscience & Biotechnology, priority 1998, dated 2001)",
  "data": [
    {"target": "T1, ACAT (Rattus norvegicus, UniProt Q7TQM4)", "T1 construct": "microsomes were separated from liver tissues to be used as an enzyme source; from tissue; host or cells: rat liver microsomes", "T1 sequence (Q7TQM4 1-524)": "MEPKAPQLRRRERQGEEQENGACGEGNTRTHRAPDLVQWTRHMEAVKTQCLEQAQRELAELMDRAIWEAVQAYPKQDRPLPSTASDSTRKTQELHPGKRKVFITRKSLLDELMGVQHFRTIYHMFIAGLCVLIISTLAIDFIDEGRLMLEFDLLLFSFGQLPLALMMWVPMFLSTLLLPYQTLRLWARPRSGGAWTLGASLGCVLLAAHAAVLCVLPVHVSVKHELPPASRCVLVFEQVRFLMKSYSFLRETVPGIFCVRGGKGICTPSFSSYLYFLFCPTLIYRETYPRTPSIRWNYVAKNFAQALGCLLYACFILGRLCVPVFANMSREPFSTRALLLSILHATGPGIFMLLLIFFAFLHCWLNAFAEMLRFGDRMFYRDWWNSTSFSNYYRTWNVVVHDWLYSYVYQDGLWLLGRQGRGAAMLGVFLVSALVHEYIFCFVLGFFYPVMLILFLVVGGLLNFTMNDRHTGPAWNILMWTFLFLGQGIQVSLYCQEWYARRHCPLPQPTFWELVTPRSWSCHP", "assay": "ACAT assay, liver microsomes of the fed rats", "format": "biochemical", "details": "liver microsomes of rats fed 0.1% in 1% cholesterol diet; Control 0", "experimental": "To determine the effect of feeding cinnamic acid derivatives to rats on the activity of ACAT, microsomes were separated from liver tissues to be used as an enzyme source.\n1 g each of the livers taken from each group of rats of Example 2 was homogenized in 5 ml of homogenization medium (0.1 M KH2 PO4, pH 7.4, 0.1 mM EDTA and 10 mM β-mercaptoethanol). The homogenate was centrifuged at 3,000×g for 15 min. at 4° C. and the supernatant thus obtained was centrifuged at 15,000×g for 15 min. at 4° C. to obtain a supernatant. The supernatant was put into an ultracentrifuge tube (Beckman) and centrifuged at 100,000×g for 1 hour at 4° C. to obtain microsomal pellets, which were then suspended in 3 ml of the homogenization medium and centrifuged at 100,000×g for 1 hour at 4° C. The pellets thus obtained were suspended in 1 ml of the homogenization medium. The protein concentration of the resulting suspension was determined by Lowry's method and then adjusted to 4 to 8 mg/ml. The resulting suspension was stored in a deep freezer (Biofreezer, Forma Scientific Inc.).\n6.67 μl of 1 mg/ml cholesterol solution in acetone was mixed with 6 μl of 10% Triton WR-1339 (Sigma Co.) in acetone and, then, acetone was removed from the mixture by evaporation under a nitrogen flow. Distilled water was added to the resulting mixture to adjust the concentration of cholesterol to […].\nAdded to 10 μl of the resulting aqueous cholesterol solution were 10 μl of 1 M KH2 PO4 (pH 7.4), 5 μl of 0.6 mM bovine serum albumin (BSA), 10 μl of microsome solution obtained in (Step 1) and 55 μl of distilled water (total 90 μl). The mixture was pre-incubated in a water bath at 37° C. for 30 min. […]\n200 μl of the resulting supernatant was put in a scintillation bottle and 4 ml of scintillation fluid (Lumac) was added thereto. The mixture was assayed for radioactivity with 1450 Microbeta liquid scintillation counter (Wallacoy, Finland). ACAT activity was calculated as picomoles of cholesteryl oleate synthesized per min. per mg protein (pmoles/min/mg protein).", "units": {"Inhibition on ACAT activity": "%"}, "values": [
      {"smiles": "O=C(O)/C=C/c1ccc(O)c(O)c1", "note": "[3,4-dihydroxycinnamic acid]", "Inhibition on ACAT activity": 7},
      {"smiles": "O=C(O)CCc1ccc(O)c(O)c1", "note": "[3,4-dihydroxyhydrocinnamic acid]", "Inhibition on ACAT activity": 20},
      {"smiles": "O=C(O)/C=C/c1ccc(O)cc1", "note": "[4-Hydroxycinnamic acid, 4-hydroxycinnamic acid]", "Inhibition on ACAT activity": 17}
    ]},
    {"tested_on": "ACAT", "assay": "ACAT assay, liver microsomes of the fed rabbits", "format": "biochemical, rabbit", "details": "rabbits fed 0.1% in 1% cholesterol diet; Control 0", "units": {"Inhibition on ACAT activity": "%"}, "values": [
      {"smiles": "O=C(O)/C=C/c1ccc(O)c(O)c1", "note": "[3,4-dihydroxycinnamic acid]", "Inhibition on ACAT activity": 33},
      {"smiles": "O=C(O)CCc1ccc(O)c(O)c1", "note": "[3,4-dihydroxyhydrocinnamic acid]", "Inhibition on ACAT activity": 37},
      {"smiles": "O=C(O)/C=C/c1ccc(O)cc1", "note": "[4-Hydroxycinnamic acid, 4-hydroxycinnamic acid]", "Inhibition on ACAT activity": 9}
    ]},
    {"tested_on": "main artery", "assay": "Analysis for fatty streak in the main artery of rabbits", "format": "in vivo, rabbit (New Zealand White)", "details": "FIGS. 1A-1E; control: a thick layer", "experimental": "(§1) Cinnamic acid derivatives were purchased from Sigma Chemical Co. (St. Louis, Mo.). The rabbits were fed for 8 weeks while being allowed free access to the diets and water. The chest of each of the rabbits sacrificed in Step 2 was incised. […] The main artery was incised in the middle along the longitudinal axis and pinned to a dish. The moist artery was photographed and, then, the staining of fatty streaks was carried out in accordance with the method of […]., et al. (J. Lab. Clin. Med., 121, 103-110(1993)) as follows. A part of the incised main artery was washed three times with anhydrous propylene glycol for 2 min. and stained for 30 min. with a saturated solution of Oil Red O (ORO, Sigma Co.) dissolved in propylene glycol. Thereafter, the artery was washed twice with 85% propylene glycol for 3 min. to remove remaining staining solution and, then washed with physiological saline. The artery was photographed and the photograph was traced. The area of stained region (fatty streak region) was determined with an image analyzer (LEICA, Q-600, Germany) and its proportion (%) to the total arterial area was calculated.", "values": [
      {"smiles": "O=C(O)/C=C/c1ccc(O)c(O)c1", "note": "[3,4-dihydroxycinnamic acid]", "macrophage-lipid complex on the arterial endothelium": "no or very thin layers of macrophage-lipid complex"},
      {"smiles": "O=C(O)CCc1ccc(O)c(O)c1", "note": "[3,4-dihydroxyhydrocinnamic acid]", "macrophage-lipid complex on the arterial endothelium": "no or very thin layers of macrophage-lipid complex"},
      {"smiles": "O=C(O)/C=C/c1ccc(O)cc1", "note": "[4-Hydroxycinnamic acid, 4-hydroxycinnamic acid]", "macrophage-lipid complex on the arterial endothelium": "no or very thin layers of macrophage-lipid complex"}
    ]},
    {"tested_on": "main artery", "assay": "Analysis for fatty streak in the main artery of rabbits", "format": "in vivo, rabbit (New Zealand White)", "details": "proportion of total arterial area, Oil Red O, rabbits, 8 weeks; Control 80 ± 8", "experimental": "as §1", "units": {"Fatty streak": "%"}, "values": [
      {"smiles": "O=C(O)/C=C/c1ccc(O)c(O)c1", "note": "[3,4-dihydroxycinnamic acid]", "Fatty streak": "13 ± 5"},
      {"smiles": "O=C(O)CCc1ccc(O)c(O)c1", "note": "[3,4-dihydroxyhydrocinnamic acid]", "Fatty streak": "16 ± 1"},
      {"smiles": "O=C(O)/C=C/c1ccc(O)cc1", "note": "[4-Hydroxycinnamic acid, 4-hydroxycinnamic acid]", "Fatty streak": "24 ± 11"}
    ]},
    {"tested_on": "not listed separately", "assay": "Plasma total cholesterol and HDL-cholesterol of rats fed a high-cholesterol diet", "format": "in vivo, rat (Sprague-Dawley)", "details": "0.1% in 1% cholesterol diet, six weeks, Control 28, listed as head is [formula]", "text": "(§2) 40 three-week-old white Sprague-Dawley rats (Taihan laboratory animal center, Korea), each weighing about 90 to 110 g, were evenly divided into four dietary groups by a randomized block design. The rats of the four groups were fed with four different high-cholesterol diets, i.e., AIN-76 laboratory animal diet (ICN Biochemicals, Cleveland, Ohio, U.S.A.) containing 1% cholesterol (Control group); 1% cholesterol plus 0.1% 4-hydroxycinnamic acid (4-hydroxycinnamic acid group); 1% cholesterol plus 0.1% 3,4-dihydroxycinnamic acid (3,4-dihydroxycinnamic acid group); and 1% cholesterol plus 0.1% 3,4-dihydroxyhydrocinnamic acid (3,4-dihydroxyhydrocinnamic acid group), respectively.\n(§3) The rats were allowed to feed freely on the specified diet together with water for six weeks, the ingestion amount was recorded daily and the rats were weighed every 7 days, and then the record was analyzed.\n(§4) The effects of administering cinnamic acid derivatives to rats on the plasma cholesterol and neutral lipid contents were determined as follows.\n(§5) The rats of the four dietary groups obtained in Step 1 were sacrificed and blood samples were taken therefrom. The blood was allowed to stand for 2 hours and centrifuged at 3,000 rpm for 15 minutes and the supernatant was separated and stored in a deep freezer before use. The chemical analysis of blood was carried out by employing a blood chemical analyzer (CIBA Corning 550 Express, USA) to determine the changes in total cholesterol and HDL-cholesterol levels.", "values": [
      {"smiles": "O=C(O)/C=C/c1ccc(O)c(O)c1", "note": "[3,4-dihydroxycinnamic acid]", "HDL-C/TC ratio": 33},
      {"smiles": "O=C(O)CCc1ccc(O)c(O)c1", "note": "[3,4-dihydroxyhydrocinnamic acid]", "HDL-C/TC ratio": 35},
      {"smiles": "O=C(O)/C=C/c1ccc(O)cc1", "note": "[4-Hydroxycinnamic acid, 4-hydroxycinnamic acid]", "HDL-C/TC ratio": 56}
    ]},
    {"tested_on": "not listed separately", "assay": "Plasma total cholesterol and HDL-cholesterol of rats fed a high-cholesterol diet", "format": "in vivo, rat (Sprague-Dawley)", "details": "0.1% in 1% cholesterol diet, six weeks, Control 38 ± 2", "text": "as §2, §3, §4, §5", "units": {"HDL-C (HDL-cholesterol)": "mg/dL"}, "values": [
      {"smiles": "O=C(O)/C=C/c1ccc(O)c(O)c1", "note": "[3,4-dihydroxycinnamic acid]", "HDL-C (HDL-cholesterol)": "39 ± 3"},
      {"smiles": "O=C(O)CCc1ccc(O)c(O)c1", "note": "[3,4-dihydroxyhydrocinnamic acid]", "HDL-C (HDL-cholesterol)": "45 ± 4"},
      {"smiles": "O=C(O)/C=C/c1ccc(O)cc1", "note": "[4-Hydroxycinnamic acid, 4-hydroxycinnamic acid]", "HDL-C (HDL-cholesterol)": "57 ± 3"}
    ]},
    {"tested_on": "not listed separately", "assay": "Plasma total cholesterol and HDL-cholesterol of rats fed a high-cholesterol diet", "format": "in vivo, rat (Sprague-Dawley)", "details": "0.1% in 1% cholesterol diet, six weeks, Control 135 ± 6", "text": "as §2, §3, §4, §5", "units": {"TC (Total cholesterol)": "mg/dL"}, "values": [
      {"smiles": "O=C(O)/C=C/c1ccc(O)c(O)c1", "note": "[3,4-dihydroxycinnamic acid]", "TC (Total cholesterol)": "118 ± 6"},
      {"smiles": "O=C(O)CCc1ccc(O)c(O)c1", "note": "[3,4-dihydroxyhydrocinnamic acid]", "TC (Total cholesterol)": "127 ± 4"},
      {"smiles": "O=C(O)/C=C/c1ccc(O)cc1", "note": "[4-Hydroxycinnamic acid, 4-hydroxycinnamic acid]", "TC (Total cholesterol)": "102 ± 6"}
    ]},
    {"tested_on": "not listed separately", "assay": "Plasma total cholesterol and HDL-cholesterol of rats fed a high-cholesterol diet", "format": "in vivo, rat (Sprague-Dawley)", "details": "as compared with control group", "text": "as §2, §3, §4, §5", "units": {"increase of HDL-C/TC ratio": "%", "reduction of total plasma cholesterol level": "%"}, "values": [
      {"smiles": "O=C(O)/C=C/c1ccc(O)c(O)c1", "note": "[3,4-dihydroxycinnamic acid]", "increase of HDL-C/TC ratio": 18, "reduction of total plasma cholesterol level": 13},
      {"smiles": "O=C(O)CCc1ccc(O)c(O)c1", "note": "[3,4-dihydroxyhydrocinnamic acid]", "increase of HDL-C/TC ratio": 25, "reduction of total plasma cholesterol level": 6},
      {"smiles": "O=C(O)/C=C/c1ccc(O)cc1", "note": "[4-Hydroxycinnamic acid, 4-hydroxycinnamic acid]", "increase of HDL-C/TC ratio": 100, "reduction of total plasma cholesterol level": 24}
    ]}
  ]
}
